Laboratory results from publication PMC9645344, “Serotonin-releasing agents with reduced off-target effects” (Molecular Psychiatry, 2022).

Legend:
Type in all cases: cell-based
[1] = molecular target: T1, human DAT (Homo sapiens, UniProt Q01959); assay: DAT uptake inhibition assay in HEK293 cells ([3H]MPP+); settings: for DAT/SERT ratio: (1/DAT IC50)/(1/SERT IC50), higher values indicate higher DAT-selectivity
T1 construct: expressed in transfected cells
Description: Human embryonic kidney 293 (HEK293) cells stably expressing the human isoforms of either DAT or SERT were maintained in Dulbecco’s Modified Eagle Medium (DMEM), supplemented with 10% fetal calf serum at a subconfluent state in humidified atmosphere (5% CO2, 37 °C).
Uptake inhibition assays were performed as described earlier. Briefly, HEK293 cells stably expressing human SERT or DAT were seeded onto poly- D-lysine (PDL) coated 96-well plates (40,000 cells well^−1) the day before an experiment. Prior to the uptake inhibition assay, DMEM was replaced with Krebs-HEPES buffer (KHB, 25 mM HEPES, 120 mM NaCl, 5 mM KCl, 1.2 mM CaCl2, 1.2 mM MgSO4, and 5 mM D-glucose, pH 7.3) and the cells were preincubated with test drugs for 5 min at room temperature. Uptake assays were initiated by adding 20 nM [^3H]MPP^+ to DAT cells or 100 nM [^3H]5-HT to SERT cells. After 180 s (DAT) or 60 s (SERT), the tritiated substrate was removed by aspiration. Cells were washed once with ice-cold KHB, then lysed in 1% sodium dodecyl sulfate (SDS) and subjected to liquid scintillation counting to quantify tritium accumulated in each sample. Non-specific uptake was determined in the presence of mazindol (1 µM) for DAT or paroxetine (1 µM) for SERT and subtracted throughout.

[2] = system: VMATs; assay: VMAT uptake inhibition assay in PC12 cells; settings: all at 30 µM, relative to inhibition by 30 µM reserpine
Description: VMAT uptake inhibition assays were conducted as previously described, with some modifications. In brief, […] PC12 cells per well were seeded in 24-well plates the day before experimentation. The cells were pretreated with 100 nM nisoxetine and mazindol to inhibit non-specific binding. PC12 cells were then preincubated with 200 µM digitonin to permeabilize membranes and were kept at room temperature on a plate shaker at low velocity for 30 min. Cells were treated with test drugs and shaken for another 10 min. Tritiated substrate (0.05 µM [^3H]5-HT) was added, and the cells incubated on the plate shaker for 30 min. To terminate uptake, cells were transferred into 1.5 ml Eppendorf tubes, centrifuged at 5000 rpm for 5 min. The supernatant was aspirated, cells were washed with cold KHB, recentrifuged and lysed with 200 µl SDS. The solutions were transferred into vials containing 2 ml scintillation cocktail and radioactivity was determined via beta-scintillation counting (Perkin Elmer, Waltham, MA, USA). For analysis, inhibitory potency of test drugs was normalized to uptake inhibition caused by the potent VMAT inhibitor reserpine.

[3] = molecular target: T2, 5-HT2A receptor (Homo sapiens, UniProt P28223); assay: 5-HT receptor-dependent induction of GCamP6s fluorescence in HEK293 cells; settings: GCamP6s fluorescence normalized to 1 µM 5-HT
T2 construct: expressed in transfected cells
T2 sequence (P28223 whole entry): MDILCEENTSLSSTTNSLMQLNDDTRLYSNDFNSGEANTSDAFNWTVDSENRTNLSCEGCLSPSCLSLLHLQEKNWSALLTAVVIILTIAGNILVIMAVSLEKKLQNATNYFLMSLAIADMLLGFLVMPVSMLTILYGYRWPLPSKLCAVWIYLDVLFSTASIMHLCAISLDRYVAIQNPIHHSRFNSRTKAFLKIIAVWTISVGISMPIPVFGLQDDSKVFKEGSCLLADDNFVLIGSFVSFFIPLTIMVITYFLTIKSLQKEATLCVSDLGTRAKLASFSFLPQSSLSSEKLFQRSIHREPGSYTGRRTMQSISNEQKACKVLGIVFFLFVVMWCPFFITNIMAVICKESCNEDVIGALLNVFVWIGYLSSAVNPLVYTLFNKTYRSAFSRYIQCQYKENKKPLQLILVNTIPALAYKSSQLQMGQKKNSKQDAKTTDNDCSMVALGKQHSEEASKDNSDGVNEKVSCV
Description: (§1) All cloning steps were performed using NEB Builder (New England Biolabs, Frankfurt/Main, Germany). GCamP6s was cloned into pcDNA3.1. GCaMP is a genetically encoded calcium indicator which allows measurement of calcium flux. To allow for visual inspection of co-expressed 5-HT2 receptors, the enhanced cyan fluorescent protein (eCFP) was added to the C-Terminus of the 5-HT2 receptors. The resulting constructs were then cloned into pcDNA4-TO to allow tetracycline dependent expression.
(§2) In a first step, HEK293 cells were transfected with pcDNA6-TR and cells stably expressing the Tet-repressor were selected by the addition of blasticidin (60 µg ml^−1). In a second step, one of the resulting clones was transfected with one of the 5-HT2 receptor constructs and stable clones were selected by the addition of zeocin (150 µg ml^−1). Suitable clones were selected by visual inspection of the eCFP signal at the plasma membrane. In a last step, the eCFP positive clones were transfected with GCamp6s, and stable clones were selected using G418 (250 µg ml^−1). The resulting clones were sorted via FACS to isolate GCaMP6s (green fluorescent protein) positive cells and the resulting polyclonal cell lines were used for further experiments. Cells were maintained in DMEM supplemented with 2% fetal bovine serum, blasticidin, zeocin, and G418 at concentrations described above. To induce receptor expression, tetracycline (1 µg ml^−1) was added to the medium 18–24 h prior to the experiment.
(§3) Imaging experiments were performed at room temperature (22–27 °C). Medium was exchanged for KHB 10 min prior to the experiment and cells were continuously superfused with KHB, using a fast superfusion device (DAD12, ALA Scientific, Farmingdale, NY, USA). Test drugs (0.1, 1, 10 µM) or 5-HT (1 µM) were applied for 30 s, interleaved by KHB superfusion for 300 s. GCamp6s fluorescence was monitored using an inverted microscope (Nikon Eclipse Ti2) equipped with a Nikon ×40 WI (NA 1.25) objective (Nikon Europe, Amsterdam, Netherlands). Fluorescence was excited using a 470 nm LED (Coolled pe4000, Coolled, Andover, NY, USA). Excitation light was filtered through a 480/20 nm bandpass filter and reflected via 505 nm dichroic mirror. Emission light was filtered using a 535/25 nm optical bandpass filter (Nikon Europe, Amsterdam, Netherlands). Images were taken at a frequency of 1 image s^−1 with an exposure time of 20–30 ms using an sCMOS camera (Andor Zyla 5.5, Oxford Instruments, Abingdon, UK) and NIS-Elements 5.2 software (Laboratory Imaging, Praha, Czech Republic).
(§4) Image Stacks were background corrected by subtracting the mean intensity of […]. For each image the mean fluorescence intensity of 1–5 ROIs consisting of several clustered cells was measured. The change in intensity of the GCamP6s fluorescence was calculated as the intensity at the end of test drug application minus the intensity before substance application, normalized to the increase of fluorescence evoked by the application of 1 µM 5-HT. Data represent 1–5 fields of view from three independent experiments

[4] = molecular target: 5-HT2B receptor (Homo sapiens, UniProt P41595); assay: as above; settings: GCamP6s fluorescence normalized to 1 µM 5-HT
5-HT2B receptor, sequence (P41595 whole entry): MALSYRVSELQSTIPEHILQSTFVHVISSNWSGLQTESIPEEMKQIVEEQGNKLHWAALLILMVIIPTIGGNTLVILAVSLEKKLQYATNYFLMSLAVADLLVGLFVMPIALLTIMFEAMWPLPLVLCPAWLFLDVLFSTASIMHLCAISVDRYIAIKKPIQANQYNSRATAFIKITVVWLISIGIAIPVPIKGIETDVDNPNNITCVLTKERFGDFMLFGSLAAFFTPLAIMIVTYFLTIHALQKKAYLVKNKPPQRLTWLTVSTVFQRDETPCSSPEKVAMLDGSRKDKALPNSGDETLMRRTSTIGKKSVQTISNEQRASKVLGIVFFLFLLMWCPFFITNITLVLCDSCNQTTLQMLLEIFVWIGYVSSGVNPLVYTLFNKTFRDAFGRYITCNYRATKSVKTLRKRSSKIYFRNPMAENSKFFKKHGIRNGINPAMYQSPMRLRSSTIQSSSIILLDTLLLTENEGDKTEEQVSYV
Description: as §1, §2, §3, §4

[5] = molecular target: T3, 5-HT2C receptor (Homo sapiens, UniProt P28335); assay: as above; settings: 1 µM; GCamP6s fluorescence normalized to 1 µM 5-HT
T3 construct: expressed in transfected cells
T3 sequence (P28335 33-458): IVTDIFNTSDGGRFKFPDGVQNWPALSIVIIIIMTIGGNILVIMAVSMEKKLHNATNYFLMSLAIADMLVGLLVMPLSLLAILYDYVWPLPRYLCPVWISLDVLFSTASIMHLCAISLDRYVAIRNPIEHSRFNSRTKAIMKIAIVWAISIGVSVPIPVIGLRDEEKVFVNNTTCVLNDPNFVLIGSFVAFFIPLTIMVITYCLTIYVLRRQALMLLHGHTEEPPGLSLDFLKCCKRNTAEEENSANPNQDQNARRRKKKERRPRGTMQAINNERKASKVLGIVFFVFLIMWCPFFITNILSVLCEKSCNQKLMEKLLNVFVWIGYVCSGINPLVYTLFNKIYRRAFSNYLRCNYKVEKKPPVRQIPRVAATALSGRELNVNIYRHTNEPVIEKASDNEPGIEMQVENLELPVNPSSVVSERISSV
Description: as §1, §2, §3, §4

T1 sequence (Q01959 whole entry): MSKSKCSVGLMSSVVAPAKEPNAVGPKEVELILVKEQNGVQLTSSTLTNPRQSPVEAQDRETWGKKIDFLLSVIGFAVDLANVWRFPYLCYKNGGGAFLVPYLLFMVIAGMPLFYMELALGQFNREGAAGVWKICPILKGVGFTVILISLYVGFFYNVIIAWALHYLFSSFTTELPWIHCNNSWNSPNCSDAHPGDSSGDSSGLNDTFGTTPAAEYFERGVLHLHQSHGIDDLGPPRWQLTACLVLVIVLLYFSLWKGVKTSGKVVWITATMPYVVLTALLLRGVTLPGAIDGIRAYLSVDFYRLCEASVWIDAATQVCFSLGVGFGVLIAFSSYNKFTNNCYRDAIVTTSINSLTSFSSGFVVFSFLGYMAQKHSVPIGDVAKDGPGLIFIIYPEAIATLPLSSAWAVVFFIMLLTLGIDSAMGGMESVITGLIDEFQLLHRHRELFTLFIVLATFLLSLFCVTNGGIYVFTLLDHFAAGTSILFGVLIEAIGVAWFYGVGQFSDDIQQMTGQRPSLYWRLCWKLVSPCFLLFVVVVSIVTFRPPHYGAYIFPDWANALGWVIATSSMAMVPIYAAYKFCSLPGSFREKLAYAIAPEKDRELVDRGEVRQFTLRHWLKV

With `Cc1ccc(C(=O)[C@H](C)N)cc1` [S-4-MC, 4-methylcathinone] the IC50 [1] was 6.65 µM, the DAT/SERT ratio [1] was 1.9 and the “inhibition of VMAT-mediated transport compared to MDMA” value [2] was “significantly less effective”. The “activation of 5-HT2A receptor” value ([3]; 1 µM) was “neither test drug activated”, the “activation of 5-HT2A receptor” value ([3]; 10 µM) was “displayed activity” and the “activation of 5-HT2B receptor” value ([4]; 1 µM) was “neither test drug activated”. For the same compound, the “activation of 5-HT2B receptor” value ([4]; 10 µM) was “moderate effects” and the “activation of 5-HT2C receptor” value [5] was “neither test drug activated”.

In the case of `CN[C@@H](C)C(=O)c1ccc(C(F)(F)F)cc1` [S-4-TFMMC, 4-trifluoromethyl-N-methylcathinone], the IC50 [1] is reported as 190 µM, the DAT/SERT ratio [1] is reported as 0.05 and the “inhibition of VMAT-mediated transport compared to MDMA” value [2] is reported as “significantly less effective”. For the same compound, the “activation of 5-HT2A receptor” value ([3]; 1 µM) was “neither test drug activated”, the “activation of 5-HT2B receptor” value ([4]; 1 µM) was “neither test drug activated” and the “activation of 5-HT2C receptor” value [5] was “neither test drug activated”.
